Like-named read-outs stand apart in the source and are kept apart here.
Legend:
SARS-CoV-2, USA-WA1/2020 = assay: Antiviral assay: inhibition of SARS-CoV-2 cytopathic effect (neutral red) in Vero 76 cells; format: cell-based; conditions: read-out: Anti-viral Assay (EC50)
NAD in murine liver = assay: In vivo NAD assay, mouse liver; conditions: 500 mg/kg oral, mice
Description: (§1) FIG. 1 provides the mean composite NAD assayed concentration in mouse liver cells. The Y-axis is concentration in mmol/kg. […] The left-most bar at each time point is vehicle, the central bar is reference compound nicotinamide mononucleotide (NMN), and the right-most bar at each time point is Compound 2. Each compound is administered orally to mice at 500 mg/kg.
(§2) In vivo NAD and NAAD assay: Animals were dosed with 500 mg/kg of test compound or reference compound in vehicle.

[1] = tested on: NAAD in murine skeletal muscle; assay: In vivo NAAD assay, mouse skeletal muscle; conditions: 500 mg/kg oral, mice, 8 hour time point, FIG. 2
Description: as §1, with “2” for “1”, “NAAD” for “NAD”, “skeletal muscle” for “liver”
as §2

[2] = concentration inhibiting CPE by 50%; i) and ii) are separate determinations

NAR-2′C-methyl-5′-guanosine ester [Compound 3]
EC50 (SARS-CoV-2, USA-WA1/2020; [2]): > 100 µM

N#C[C@@]1(c2ccc3c(N)ncnn23)O[C@H](COP(=O)([O-])OC[C@H]2O[C@@H]([n+]3cccc(C(=O)O)c3)[C@H](O)[C@@H]2O)[C@@H](O)[C@H]1O [Compound 1, ((2R,3S,4R,5R)-5-(4-aminopyrrolo[2,1-f][1,2,4]triazin-7-yl)-5-cyano-3,4-dihydroxytetrahydrofuran-2-yl)methyl (((2R,3S,4R,5R)-5-(3-carboxy-1λ^4-pyridin-1-yl)-3,4-dihydroxytetrahydrofuran-2-yl)methyl)_phosphate]
EC50 (SARS-CoV-2, USA-WA1/2020; Severe acute respiratory syndrome coronavirus 2, Vero 76, 120 h, concentration inhibiting CPE by 50%; Vero 76 cells, neutral red, day 5 post-infection; i) and ii) are separate determinations): 17 µM
EC50 (SARS-CoV-2, USA-WA1/2020; concentration inhibiting CPE by 50%; Vero 76 cells, neutral red, day 5 post-infection; i) and ii) are separate determinations): 31 µM

NAR-2′C-methyl-5′-cytidine ester [Compound 5]
EC50 (SARS-CoV-2, USA-WA1/2020; [2]): > 100 µM

((2R,3S,4R,5R)-5-(3-((((2R,3S,4R,5R)-5-(4-aminopyrrolo[2,1-f][1,2,4]triazin-7-yl)-5-cyano-3,4-dihydroxytetrahydrofuran-2-yl)methoxy)carbonyl)-1λ^4-pyridin-1-yl)-3,4-dihydroxytetrahydrofuran-2-yl)methyl hydrogen phosphate [Compound 2]
Oral availability (NAD in murine liver): orally available
NAD level in murine liver (NAD in murine liver; 8 hour time point, FIG. 1): boosted
NAAD level in murine skeletal muscle [1]: boosted

NAR-2′C-Methyl-6-O-methyl-5′-guanosine ester [Compound 6]
EC50 (SARS-CoV-2, USA-WA1/2020; [2]): > 100 µM

NC(=O)c1ccc[n+]([C@@H]2O[C@H](COP(=O)([O-])O)[C@@H](O)[C@H]2O)c1 [Nicotinamide mononucleotide (NMN), Nicotinamide mononucleotide, reference compound]
EC50 (SARS-CoV-2, USA-WA1/2020; [2]): > 2000 µM

NAR-2′C-methyl 5′-uridine ester [Compound 4]
EC50 (SARS-CoV-2, USA-WA1/2020; [2]): > 100 µM

CCC(CC)COC(=O)[C@H](C)N[P@](=O)(OC[C@H]1O[C@@](C#N)(c2ccc3c(N)ncnn23)[C@H](O)[C@@H]1O)Oc1ccccc1 [Remdesivir, reference compound]
EC50 (SARS-CoV-2, USA-WA1/2020; Severe acute respiratory syndrome coronavirus 2, Vero 76, 120 h; concentration inhibiting CPE by 50%; i) and ii) are separate determinations): 1.9 to 6 µM

Source: patent publication US12516081B2, “Anti-viral compounds and methods of use” (Metro International Biotech, LLC, priority 2020, dated 2026)
